Measured values from patent EP0550016A1, “Novel quinolone carboxylic acid derivatives and processes for preparing same” (KOREA RESEARCH INSTITUTE OF CHEMICAL TECHNOLOGY, priority 1991, dated 1993).
Values after ≈ are worked out from the molar mass of the structure shown. Where two headings read alike, the source gives them in different places.

Assays:
Escherichia coli 1507 E = experiment: In vitro anti-bacterial activity test (MIC, two-fold dilution method) against the standard strains; type: cell-based; details: Table 1 strain 11: Escherichia coli 1507 E
[1] = tested on: Pseudomonas aeruginosa 1592 E; experiment: as above; type: cell-based; details: Table 1 strain 13: Pseudomonas aeruginosa 1592 E
P. mirabilis = experiment: Preventive effect against the systemic infection; type: in vivo; details: Proteus mirabilis, 168 h, NMRI mice, survival on day 7, read-out: ED₅₀
Procedure: 10 fold of the pathogen which leads to 100% lethality were injected intraperitoneally to male and female NMRI mice weighing 18 to 20g. Immediately and after 4 hours, the dose of test compounds which was determined by two-fold serial dilution method was administered orally or subcutaneously; and on day 7, the effectiveness was evaluated in terms of ED₅₀ calculated from the number of survived mice by the probit analysis.

Escherichia coli OTEM = experiment: In vitro anti-bacterial activity test (MIC, two-fold dilution method) against the standard strains; type: cell-based; details: Table 1 strain 10: Escherichia coli OTEM
Escherichia coli DC 2 = experiment: as above; type: cell-based; details: DC2; Table 1 strain 9: Escherichia coli DC 2; read-out: MIC
[2] = tested on: Enterobacter cloacae 1321 E; experiment: as above; type: cell-based; details: Table 1 strain 20: Enterobacter cloacae 1321 E
[3] = tested on: Staphylococcus aureus SG 511; experiment: as above; type: cell-based; details: SG511; Table 1 strain 4: Staphylococcus aureus SG 511
[4] = tested on: Klebsiella aerogenes 1522 E; experiment: as above; type: cell-based; details: Table 1 strain 18: Klebsiella aerogenes 1522 E
[5] = tested on: Pseudomonas aeruginosa 1771; experiment: as above; type: cell-based; details: Table 1 strain 14: Pseudomonas aeruginosa 1771
[6] = tested on: Enterobacter cloacae P 99; experiment: as above; type: cell-based; details: P99; Table 1 strain 19: Enterobacter cloacae P 99
[7] = tested on: Streptococcus pyogenes 308 A; experiment: as above; type: cell-based; details: Table 1 strain 1: Streptococcus pyogenes 308 A
Escherichia coli DC 0 [8] = experiment: as above; type: cell-based; details: DC0; Table 1 strain 8: Escherichia coli DC 0
[9] = tested on: Klebsiella aerogenes 1082 E; experiment: as above; type: cell-based; details: Table 1 strain 17: Klebsiella aerogenes 1082 E
Escherichia coli DC 0 [10] = experiment: as above; type: cell-based; details: DC0; Table 1 strain 7: Escherichia coli DC 0
[11] = tested on: Staphylococcus aureus 503; experiment: as above; type: cell-based; details: Table 1 strain 6: Staphylococcus aureus 503; read-out: MIC
[12] = tested on: Streptococcus faecium MD 8b; experiment: as above; type: cell-based; details: Enterococcus faecium, MD8B; Table 1 strain 3: Streptococcus faecium MD 8b; read-out: MIC
[13] = tested on: Pseudomonas aeruginosa 1771 M; experiment: as above; type: cell-based; details: Table 1 strain 15: Pseudomonas aeruginosa 1771 M
[14] = tested on: Streptococcus pyogenes 77 A; experiment: as above; type: cell-based; details: Table 1 strain 2: Streptococcus pyogenes 77 A; read-out: MIC
Salmonella typhimurium = experiment: as above; type: cell-based; details: Salmonella enterica; Table 1 strain 16: Salmonella typhimurium
[15] = tested on: Staphylococcus aureus 285; experiment: as above; type: cell-based; details: Table 1 strain 5: Staphylococcus aureus 285; read-out: MIC
[16] = tested on: Pseudomonas aeruginosa 9027; experiment: as above; type: cell-based; details: Table 1 strain 12: Pseudomonas aeruginosa 9027
[17] = tested on: Staphylococcus aureus 121 E; experiment: In vitro anti-bacterial activity test (MIC, two-fold dilution method), Table 2 strains; type: cell-based; details: Table 2 strain 2: Staphylococcus aureus 121 E; read-out: MIC
[18] = tested on: Staphylococcus aureus 208 E; experiment: as above; type: cell-based; details: Table 2 strain 3: Staphylococcus aureus 208 E; read-out: MIC
[19] = tested on: Staphylococcus aureus 725 E; experiment: as above; type: cell-based; details: Table 2 strain 19: Staphylococcus aureus 725 E; read-out: MIC
[20] = tested on: Staphylococcus aureus 703 E; experiment: as above; type: cell-based; details: Table 2 strain 12: Staphylococcus aureus 703 E; read-out: MIC
[21] = tested on: Staphylococcus aureus 701 E; experiment: as above; type: cell-based; details: Table 2 strain 11: Staphylococcus aureus 701 E; read-out: MIC
[22] = tested on: Staphylococcus aureus 690 E; experiment: as above; type: cell-based; details: Table 2 strain 5: Staphylococcus aureus 690 E; read-out: MIC
[23] = tested on: Staphylococcus aureus 708 E; experiment: as above; type: cell-based; details: Table 2 strain 16: Staphylococcus aureus 708 E
[24] = tested on: Staphylococcus aureus 706 E; experiment: as above; type: cell-based; details: Table 2 strain 14: Staphylococcus aureus 706 E; read-out: MIC
[25] = tested on: Staphylococcus aureus 695 E; experiment: as above; type: cell-based; details: Table 2 strain 9: Staphylococcus aureus 695 E; read-out: MIC
[26] = tested on: Staphylococcus aureus 692 E; experiment: as above; type: cell-based; details: Table 2 strain 6: Staphylococcus aureus 692 E
[27] = tested on: Staphylococcus aureus 707 E; experiment: as above; type: cell-based; details: Table 2 strain 15: Staphylococcus aureus 707 E; read-out: MIC
[28] = tested on: Staphylococcus aureus 714 E; experiment: as above; type: cell-based; details: Table 2 strain 18: Staphylococcus aureus 714 E; read-out: MIC
[29] = tested on: Staphylococcus aureus 711 E; experiment: as above; type: cell-based; details: Table 2 strain 17: Staphylococcus aureus 711 E; read-out: MIC
[30] = tested on: Staphylococcus aureus 693 E; experiment: as above; type: cell-based; details: Table 2 strain 7: Staphylococcus aureus 693 E; read-out: MIC
[31] = tested on: Staphylococcus aureus 256 E; experiment: as above; type: cell-based; details: Table 2 strain 4: Staphylococcus aureus 256 E
[32] = tested on: Staphylococcus aureus 694 E; experiment: as above; type: cell-based; details: Table 2 strain 8: Staphylococcus aureus 694 E; read-out: MIC
[33] = tested on: Staphylococcus aureus 697 E; experiment: as above; type: cell-based; details: Table 2 strain 10: Staphylococcus aureus 697 E
[34] = tested on: Staphylococcus aureus 88 E; experiment: as above; type: cell-based; details: Table 2 strain 1: Staphylococcus aureus 88 E
[35] = tested on: Staphylococcus aureus 705 E; experiment: as above; type: cell-based; details: Table 2 strain 13: Staphylococcus aureus 705 E; read-out: MIC
Acute Toxicity Test = details: mouse, in vivo, female ICR mice, day 14, read-out: Acute Toxicity(LD₅₀)
Procedure: Test compounds were administered to female ICR mice weighing 20 to 25g and on day 14, LD₅₀ was calculated from the number of survived mice by the probit analysis.

| SMILES | MIC (Escherichia coli 1507 E) [µg/mL] | MIC [1] [µg/mL] | MIC (Escherichia coli OTEM) [µg/mL] | MIC (Escherichia coli DC 2) [µg/mL] | MIC [2] [µg/mL] | MIC [3] [µg/mL] | MIC [4] [µg/mL] | MIC [5] [µg/mL] | MIC [6] [µg/mL] | MIC [7] [µg/mL] | MIC (Escherichia coli DC 0 [8]) [µg/mL] | MIC [9] [µg/mL] | MIC (Escherichia coli DC 0 [10]) [µg/mL] | MIC [11] [µg/mL] | MIC [12] [µg/mL] | MIC [13] [µg/mL] | MIC [14] [µg/mL] | MIC (Salmonella typhimurium) [µg/mL] | MIC [15] [µg/mL] | MIC [16] [µg/mL] | other results |
| --- | --- | --- | --- | --- | --- | --- | --- | --- | --- | --- | --- | --- | --- | --- | --- | --- | --- | --- | --- | --- | --- |
| NC1CC12CCN(c1c(F)cc3c(=O)c(C(=O)O)cn(C4CC4)c3c1Cl)C2 (centres unmarked) [Example 3, 7-(1-amino-5-azaspiro[2,4]heptane-5-yl)-8-chloro-1-cyclopropyl-6-fluoro-1,4-dihydro-4-oxoquinoline-3-carboxylic acid] | 0.025 (≈ 0.0638 µM) | 0.781 (≈ 1.99 µM) | 0.007 (≈ 0.0179 µM) | 0.025 (≈ 0.0638 µM) | < 0.002 | 0.025 (≈ 0.0638 µM) | 0.004 (≈ 0.0102 µM) | 0.781 (≈ 1.99 µM) | 0.004 (≈ 0.0102 µM) | 0.098 (≈ 0.25 µM) | 0.195 (≈ 0.498 µM) | < 0.002 | < 0.002 | 0.004 (≈ 0.0102 µM) | 0.391 (≈ 0.998 µM) | 0.195 (≈ 0.498 µM) | 0.025 (≈ 0.0638 µM) | 0.004 (≈ 0.0102 µM) | 0.007 (≈ 0.0179 µM) | 0.781 (≈ 1.99 µM) | ED50 (P. mirabilis; Oral Administration): 2.58 mg/kg; ED50 (P. mirabilis; sc, Subcutaneous Injection): 0.63 mg/kg |
| Nc1c(F)c(N2CCC3(CC3N)C2)c(F)c2c1c(=O)c(C(=O)O)cn2C1CC1 (centres unmarked) [Example 7, 7-(1-amino-5-azaspiro[2,4]heptane-5-yl)-1-cyclopropyl-5-amino-6,8-difluoro-1,4-dihydro-4-oxo-quinoline-3-carboxylic acid] | 0.098 (≈ 0.251 µM) | 1.56 (≈ 4 µM) | 0.025 (≈ 0.064 µM) | 0.098 (≈ 0.251 µM) | 0.013 (≈ 0.0333 µM) | 0.025 (≈ 0.064 µM) | 0.098 (≈ 0.251 µM) | 0.781 (≈ 2 µM) | 0.025 (≈ 0.064 µM) | 0.391 (≈ 1 µM) | 0.391 (≈ 1 µM) | 0.007 (≈ 0.0179 µM) | 0.007 (≈ 0.0179 µM) | 0.025 (≈ 0.064 µM) | 0.391 (≈ 1 µM) | 0.391 (≈ 1 µM) | 0.195 (≈ 0.5 µM) | 0.025 (≈ 0.064 µM) | 0.025 (≈ 0.064 µM) | 1.56 (≈ 4 µM) | MIC [17]: 0.025 µg/mL (≈ 0.064 µM); MIC [18]: 0.025 µg/mL (≈ 0.064 µM); MIC [19]: 0.025 µg/mL (≈ 0.064 µM); MIC [20]: 0.025 µg/mL (≈ 0.064 µM); MIC [21]: 0.025 µg/mL (≈ 0.064 µM); MIC [22]: 0.013 µg/mL (≈ 0.0333 µM); MIC [23]: 0.007 µg/mL (≈ 0.0179 µM); MIC [24]: 0.025 µg/mL (≈ 0.064 µM); MIC [25]: 0.013 µg/mL (≈ 0.0333 µM); MIC [26]: 0.013 µg/mL (≈ 0.0333 µM); MIC [27]: 0.025 µg/mL (≈ 0.064 µM); MIC [28]: 0.013 µg/mL (≈ 0.0333 µM); MIC [29]: 0.007 µg/mL (≈ 0.0179 µM); MIC [30]: 0.013 µg/mL (≈ 0.0333 µM); MIC [31]: 0.025 µg/mL (≈ 0.064 µM); MIC [32]: 0.025 µg/mL (≈ 0.064 µM); MIC [33]: 0.013 µg/mL (≈ 0.0333 µM); MIC [34]: 0.098 µg/mL (≈ 0.251 µM); MIC [35]: 0.025 µg/mL (≈ 0.064 µM) |
| C[C@H]1COc2c(N3CCC4(CC4N)C3)c(F)cc3c(=O)c(C(=O)O)cn1c23 (some centres unmarked) [Example 13] | 0.098 (≈ 0.262 µM) | 1.56 (≈ 4.19 µM) | 0.049 (≈ 0.131 µM) | 0.098 (≈ 0.262 µM) | 0.049 (≈ 0.131 µM) | 0.098 (≈ 0.262 µM) | 0.098 (≈ 0.262 µM) | 1.56 (≈ 4.19 µM) | 0.049 (≈ 0.131 µM) | 0.391 (≈ 1.05 µM) | 0.391 (≈ 1.05 µM) | 0.004 (≈ 0.0107 µM) | 0.025 (≈ 0.067 µM) | 0.049 (≈ 0.131 µM) | 0.195 (≈ 0.522 µM) | 0.391 (≈ 1.05 µM) | 0.195 (≈ 0.522 µM) | 0.049 (≈ 0.131 µM) | 0.098 (≈ 0.262 µM) | 1.56 (≈ 4.19 µM) | LD50 at 336 h (Acute Toxicity Test; ip, Intraperitoneal Injection): 620 mg/kg; LD50 at 336 h (Acute Toxicity Test; Oral Administration): 4000 mg/kg |
